Experimental data as given in patent US20030162759A1, “Aldosterone blocker therapy to prevent or treat inflammation-related disorders” (priority 2000, published 2003).
Entries after “also recorded” stand apart in the source; their conditions may differ.

Columns and labels:
Assay type in all cases: in vivo, rat
[1] = test system: angiotensin II infused rats; assay: Assay A angiotensin II infusion model: urinary Na+/K+ ratio (natriuresis index); details: saline-drinking rats, eplerenone 100 mpk
From the text: 24-hours food and fluid intake and urine output measured every day Urine samples collected every day for determination of urinary electrolytes. Electrolyte excretion. The ratio between daily urinary Na^+ excretion and urinary K^+ excretion (U Na^+/K^+ ratio) was used as an index for natriuresis. Urinary Na^+/K^+ ratio was similar in all groups before the start of the treatments, and increased similarly in all animals upon initiation of the high salt diet.

[2] = test system: stroke-prone spontaneously hypertensive rats; assay: Stroke-prone spontaneously hypertensive rats: survival and cerebral injury (FIGS. 37-38); details: stroke-prone spontaneously hypertensive rats (FIGS. 37, 38)
[3] = test system: angiotensin II infused, captopril treated stroke prone spontaneously hypertensive rats; assay: Angiotensin II infused, captopril treated stroke prone spontaneously hypertensive rats: urinary protein excretion and renal injury (FIGS. 35-36)
[4] = test system: osteopontin, ED-1, CD-3, ICAM-1, VCAM-1; assay: Assay C: immunohistochemistry of myocardial tissue (osteopontin, ED-1, CD-3, ICAM-1, VCAM-1); details: aldosterone+salt treated rats; eplerenone 100 mg/kg/day
Procedure: The procedure of Assay B was expanded upon in a further study. […] Myocardial tissue from animals in each treatment group was examined after 7, 14, or 30 days of treatment. […] Lesions were preceded by the expression and progressive upregulation of proinflammatory molecules.
Potassium chloride supplementation was added to the saline solution in order to prevent the potential hypokalemia associated with aldosterone excess.
At the time of the surgery, an Alzet 2002 osmotic minipump (Alza Corp., Palo Alto, Calif.) containing either vehicle (9% ethanol/87% propylene glycol/4% dH2O) or 1.0 mg/mL d-aldosterone (Sigma Chemical, St. Louis, Mo.) was inserted subcutaneously at the nape of the neck. Aldosterone was administered at a dose of 0.75 g/hour. […] Animals were sacrificed from each group (n=8-13) after 7, 14, or 30 days of treatment.
Five m sections were deparaffinized in xylene (two, 5-10 min incubations) and rehydrated by 3 min incubations in ethanol as follows: two incubations in 100% ethanol followed by two incubations in 95% alcohol and one incubation in 70% alcohol. Once hydrated, sections were rinsed in tap water for 1 min and distilled water for 1 min. Endogenous peroxide activity was blocked by placing slides in 3.0% H2O2 for 15 min followed by a 5 min rinse in distilled water. Slides were processed for antigen retrieval using citric acid, pH 6.0. […]

osteopontin = assay: Assay B aldosterone infusion model: osteopontin mRNA in heart by quantitative RT-PCR (Taqman)
Procedure: Assay B: In vivo Aldosterone Infusion Model Male Sprague Dawley rats (n=39; BW=250 g) […] Uni-nephrectomy performed during implantation of mini-pumps […] Aldosterone ([…], sc via aizet minipump) […] 1. […] Sacrifice after 4 weeks. Hearts were harvested and divided by half through a transverse section at the mid-ventricles: The upper half was stored into formalin. The bottom part was snap-frozen in liquid nitrogen for biochemical analysis. Determination of osteopontin and COX-2 was performed by quantitative RT-PCR (Taqman). Osteopontin was also identified in the heart by immunohistochemistry.

COC(=O)[C@@H]1CC2=CC(=O)CC[C@]2(C)[C@@]23O[C@@H]2C[C@@]2(C)[C@@H](CC[C@@]24CCC(=O)O4)[C@H]13 [eplerenone, Pregn-4-ene-7,21-dicarboxylic acid, 9,11-epoxy-17-hydroxy-3-oxo-, γ-lactone, methyl ester, (7α, 11α, 17β) -]
Urinary Na+/K+ ratio (diuretic or natriuretic effect) [1]: did not produce a significant diuretic or natriuretic effect
Cerebral injury [2]: reduced cerebral injury; also recorded: decrease in cerebral injury
Urinary protein excretion ([3]; captopril treated SHRSP (FIG. 35)): inhibition of increased urinary protein excretion
Histopathological scores for renal injury ([3]; captopril treated SHRSP (FIG. 36)): reduction in histopathological scores for renal injury
Staining in myocardial tissue for marker proteins (immunohistochemistry) [4]: markedly blunted the aldosterone+salt treatment induced staining
Osteopontin upregulation in myocardium (osteopontin; aldosterone infused rats (FIG. 30)): prevention by eplerenone of osteopontin upregulation
Osteopontin relative mRNA expression (osteopontin; heart, quantitative RT-PCR, aldosterone/salt rats, 4 weeks, eplerenone 100 mpk p.o.): 2.5±0.6
